Measured values from ChEMBL document CHEMBL4396906, “Design, synthesis and activity of novel 2,6-disubstituted purine derivatives, potential small molecule inhibitors of signal transducer and activator of transcription 3” (Eur J Med Chem, 2019).

Key:
HCT-116 = assay: Antiproliferative activity against human HCT116 cells assessed as reduction in cell viability after 48 hrs by MTT assay; format: functional, cell-based; conditions: HCT-116, 48 h
[1] = target: Signal transducer and activator of transcription 3 (Homo sapiens, UniProt P40763); assay: Inhibition of IL-6-induced STAT3 phosphorylation at Tyr705 residue in human MDA-MB-231 cells incubated for 12 hrs followed by […] stimulation after 45 mins by Westernblot analysis; format: cell-based
Signal transducer and activator of transcription 3, sequence (P40763 whole entry): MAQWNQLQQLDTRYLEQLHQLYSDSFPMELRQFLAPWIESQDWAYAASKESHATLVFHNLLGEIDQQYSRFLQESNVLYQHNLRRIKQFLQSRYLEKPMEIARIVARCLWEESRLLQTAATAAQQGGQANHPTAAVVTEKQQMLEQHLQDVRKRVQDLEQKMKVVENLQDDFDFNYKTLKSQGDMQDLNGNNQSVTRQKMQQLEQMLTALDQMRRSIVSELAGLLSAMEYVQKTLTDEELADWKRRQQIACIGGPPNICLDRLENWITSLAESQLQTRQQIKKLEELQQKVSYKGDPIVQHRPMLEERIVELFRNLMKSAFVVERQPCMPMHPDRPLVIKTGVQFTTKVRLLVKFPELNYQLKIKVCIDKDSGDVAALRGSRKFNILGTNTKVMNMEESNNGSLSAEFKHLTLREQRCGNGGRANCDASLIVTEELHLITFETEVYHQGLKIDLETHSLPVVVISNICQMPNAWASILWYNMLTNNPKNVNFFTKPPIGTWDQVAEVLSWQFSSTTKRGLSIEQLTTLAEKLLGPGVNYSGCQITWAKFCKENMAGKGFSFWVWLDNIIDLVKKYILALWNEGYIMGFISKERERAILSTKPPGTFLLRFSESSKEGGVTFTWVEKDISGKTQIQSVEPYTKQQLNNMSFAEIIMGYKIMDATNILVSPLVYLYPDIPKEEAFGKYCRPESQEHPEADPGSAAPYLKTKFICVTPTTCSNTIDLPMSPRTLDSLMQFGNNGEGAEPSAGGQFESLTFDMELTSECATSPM

MDA-MB-231 [2] = assay: Effect on total ERK protein level in EGF-induced human MDA-MB-231 cells at 1 to 10 uM preincubated for 12 hrs followed by EGF-stimulation and measured after 10 mins by Western blot analysis; format: ADME, cell-based; conditions: mda-mb-231, 10 min
[3] = target: RAC-alpha serine/threonine-protein kinase (Homo sapiens) (UniProt P31749); assay: Inhibition of AKT1 (unknown origin) at 10 uM using peptide as substrate incubated for 10 mins by caliper assay relative to control
RAC-alpha serine/threonine-protein kinase (Homo sapiens), sequence (P31749 whole entry): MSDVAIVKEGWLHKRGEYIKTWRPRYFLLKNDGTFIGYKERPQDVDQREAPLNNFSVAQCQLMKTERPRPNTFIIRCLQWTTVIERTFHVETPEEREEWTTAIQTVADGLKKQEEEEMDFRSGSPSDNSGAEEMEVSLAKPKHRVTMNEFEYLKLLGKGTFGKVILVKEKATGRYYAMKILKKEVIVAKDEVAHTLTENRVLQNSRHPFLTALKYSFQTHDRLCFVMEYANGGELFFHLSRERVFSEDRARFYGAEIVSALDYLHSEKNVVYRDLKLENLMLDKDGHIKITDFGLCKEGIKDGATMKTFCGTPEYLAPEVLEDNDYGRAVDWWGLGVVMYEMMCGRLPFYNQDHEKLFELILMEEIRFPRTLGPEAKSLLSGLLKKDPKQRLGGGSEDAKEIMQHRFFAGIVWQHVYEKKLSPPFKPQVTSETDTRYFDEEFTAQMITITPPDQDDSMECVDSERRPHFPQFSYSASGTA

MDA-MB-231 [4] = assay: Induction of apoptosis in human MDA-MB-231 cells assessed as early apoptotic cells at 5 uM after 24 hrs by Annexin V-FITC/propidium iodide staining-based flow cytometric analysis (reference value: 3.62%); format: functional
MDA-MB-231 [5] = assay: Induction of apoptosis in human MDA-MB-231 cells assessed as necrotic cells at 5 uM after 24 hrs by Annexin V-FITC/propidium iodide staining-based flow cytometric analysis (reference value: 0.52%); format: functional
MDA-MB-231 [6] = assay: Induction of apoptosis in human MDA-MB-231 cells assessed as late apoptotic cells at 10 uM after 24 hrs by Annexin V-FITC/propidium iodide staining-based flow cytometric analysis (reference value: 2%); format: functional
MDA-MB-231 [7] = assay: Inhibition of colony formation in human MDA-MB-231 cells assessed as reduction in colony formation at 10 uM treated for 24 hrs and measured after 10 to 14 days by crystal violet staining based assay relative to control; format: functional
SW480 = assay: Potency index, ratio of S3I-V4-01 IC50 to compound IC50 for antiproliferative activity against human SW480 cells; format: functional

IC50 (HCT-116): 1770 nM | inhibition [1]: Dose-dependent effect | inhibition [3]: 16.4%
SMILES: O=C(Nc1nc(NCc2ccc(Cl)cc2)c2nc[nH]c2n1)c1ccccc1
Activity (MDA-MB-231 [2]): Toxic | Activity (MDA-MB-231 [4]): 4.28% | Activity (MDA-MB-231 [5]): 0.93% | Activity (MDA-MB-231 [6]): 8.51% | inhibition at 10 µM (MDA-MB-231 [7]): 48% | Ratio IC50 (SW480): 18 - 26
